Source: BindingDB's records for doi:10.1021/jm000085e (Synaptic Pharmaceutical, 2000)

Test: Binding affinity towards Alpha1D dog adrenergic receptors, using [125I]-HEAT as radioligand.

- Ki: 133 nM
Compound: C[C@@H]1OC(=O)N(C(=O)NCCCN2CCC(c3ccc(F)cc3)CC2)[C@H]1c1ccc(F)c(F)c1 [4-(3,4-Difluoro-phenyl)-5-methyl-2-oxo-oxazolidine-3-carboxylic acid {3-[4-(4-fluoro-phenyl)-piperidin-1-yl]-propyl}-amide]
